Where two headings read alike, the source gives them in different places. One block for each molecule: values may come before it.
Columns and labels:
Assay type in all cases: cell-based
mTLR7 = target: T1, mTLR7 (Mus musculus, UniProt P58681); test: Reporter Gene Assay (RGA), HEK-Blue mTLR7 reporter cells, SEAP readout; settings: overnight incubation, SEAP absorbance 620 nm
T1 construct: host or cells: HEK-Blue mTLR7 reporter cells (HEK293-derived, own knowledge)
T1 sequence (P58681 27-1050): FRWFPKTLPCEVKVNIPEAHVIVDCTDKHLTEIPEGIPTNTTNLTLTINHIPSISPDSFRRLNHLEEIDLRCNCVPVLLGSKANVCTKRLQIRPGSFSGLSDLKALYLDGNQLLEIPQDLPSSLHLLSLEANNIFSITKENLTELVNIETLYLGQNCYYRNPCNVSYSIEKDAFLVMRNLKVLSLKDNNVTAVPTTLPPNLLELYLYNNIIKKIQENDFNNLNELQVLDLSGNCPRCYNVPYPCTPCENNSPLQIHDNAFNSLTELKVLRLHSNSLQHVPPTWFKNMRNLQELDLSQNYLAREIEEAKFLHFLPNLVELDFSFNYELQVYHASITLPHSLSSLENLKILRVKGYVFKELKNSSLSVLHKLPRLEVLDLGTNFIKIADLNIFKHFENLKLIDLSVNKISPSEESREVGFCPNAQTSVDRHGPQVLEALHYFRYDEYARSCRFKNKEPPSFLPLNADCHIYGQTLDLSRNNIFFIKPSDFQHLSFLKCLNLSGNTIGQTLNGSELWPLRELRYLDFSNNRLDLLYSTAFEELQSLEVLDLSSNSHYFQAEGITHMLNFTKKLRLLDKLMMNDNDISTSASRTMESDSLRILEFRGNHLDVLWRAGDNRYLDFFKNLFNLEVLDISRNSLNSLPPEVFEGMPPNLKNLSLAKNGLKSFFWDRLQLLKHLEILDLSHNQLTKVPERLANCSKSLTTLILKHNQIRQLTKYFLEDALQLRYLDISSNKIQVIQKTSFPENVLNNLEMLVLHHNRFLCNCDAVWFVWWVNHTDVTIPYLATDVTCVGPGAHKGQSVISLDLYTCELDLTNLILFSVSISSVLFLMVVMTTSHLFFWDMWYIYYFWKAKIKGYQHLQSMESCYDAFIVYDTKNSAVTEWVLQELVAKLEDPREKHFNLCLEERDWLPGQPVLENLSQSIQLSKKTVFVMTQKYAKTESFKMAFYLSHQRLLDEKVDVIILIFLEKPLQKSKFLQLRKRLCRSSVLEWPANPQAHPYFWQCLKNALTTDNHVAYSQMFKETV
Summary of the method: (§1)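 HEK-Blue reporter cells expressing human or mouse TLR7 (1.5×10^4 cells) were treated with an 11-point, 4-fold compound titration from 15 pM in HEK-Blue Detection medium. Incubation was overnight at 37° C with 5% CO2. Secreted embryonic alkaline phosphatase was read as absorbance at 620 nm.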

hTLR7 = target: T2, hTLR7 (Homo sapiens, UniProt Q9NYK1); test: Reporter Gene Assay (RGA), HEK-Blue hTLR7 reporter cells, SEAP readout; settings: overnight incubation, SEAP absorbance 620 nm
T2 construct: host or cells: HEK-Blue hTLR7 reporter cells (HEK293-derived, own knowledge)
T2 sequence (Q9NYK1 27-1049): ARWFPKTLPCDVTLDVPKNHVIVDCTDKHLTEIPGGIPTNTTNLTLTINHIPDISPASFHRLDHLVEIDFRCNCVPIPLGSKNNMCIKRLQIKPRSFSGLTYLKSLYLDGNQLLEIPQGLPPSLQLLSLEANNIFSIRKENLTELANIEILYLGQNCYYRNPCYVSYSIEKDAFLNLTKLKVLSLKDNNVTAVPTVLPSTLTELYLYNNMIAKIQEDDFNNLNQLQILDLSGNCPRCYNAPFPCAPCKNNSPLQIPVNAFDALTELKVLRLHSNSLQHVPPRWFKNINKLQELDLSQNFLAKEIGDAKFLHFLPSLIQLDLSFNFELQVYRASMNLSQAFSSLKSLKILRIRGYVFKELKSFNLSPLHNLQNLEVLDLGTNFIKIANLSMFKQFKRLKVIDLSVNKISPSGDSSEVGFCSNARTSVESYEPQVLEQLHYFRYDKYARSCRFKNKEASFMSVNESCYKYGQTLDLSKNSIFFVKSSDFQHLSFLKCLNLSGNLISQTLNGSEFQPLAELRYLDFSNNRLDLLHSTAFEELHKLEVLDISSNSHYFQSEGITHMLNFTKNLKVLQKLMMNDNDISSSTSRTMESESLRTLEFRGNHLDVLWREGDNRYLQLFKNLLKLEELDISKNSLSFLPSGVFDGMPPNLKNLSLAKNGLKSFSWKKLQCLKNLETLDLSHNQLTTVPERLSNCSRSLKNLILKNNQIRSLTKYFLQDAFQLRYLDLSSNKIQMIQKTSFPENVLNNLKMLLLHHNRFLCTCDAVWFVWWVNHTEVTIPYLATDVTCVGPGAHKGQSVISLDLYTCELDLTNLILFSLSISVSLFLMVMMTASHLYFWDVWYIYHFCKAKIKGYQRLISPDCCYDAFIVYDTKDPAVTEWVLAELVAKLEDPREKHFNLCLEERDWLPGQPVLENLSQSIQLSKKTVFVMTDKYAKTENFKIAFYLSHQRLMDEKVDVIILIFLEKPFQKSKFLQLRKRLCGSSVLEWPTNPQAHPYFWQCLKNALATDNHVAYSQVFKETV
Summary of the method: as §1

Mouse splenocytes = test: Mouse Splenocyte Assay, cytokine release (HTRF); settings: 24 hours, mIL6 in supernatant; for EC50: Splenocyte, read-out: Splenocyte IL6 EC50
Summary of the method: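 Splenocytes from female balb/c nude mice, thawed, 100,000 per well in RPMI + 10% FBS. Exposed for 24 h at 37 °C to a 4-fold 11-point compound titration from 15 μM; supernatant mIL6 and mTNFα measured by HTRF.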

[1] = test system: Human peripheral blood mononuclear cells (PBMCs); test: Human PBMC Assay, cytokine release (HTRF); settings: 24 hours; for EC50: PBMC
Summary of the method: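 Cryopreserved human PBMCs, rested overnight with 10 ng/ml hIL3, then 300,000 cells/well treated 24 h at 37° C with compound (4-fold, 11-point titration from 15 μM) in RPMI+10% FBS. Supernatant hIL6, hTNFα and hIFNα measured by HTRF; growth medium as negative control.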

[2] = hIFNα in supernatant, EC50 values approximated and divided into groups, read-out: PBMC IFNa EC50
[3] = hIL6 in supernatant, read-out: PBMC IL6 EC50

Structure (SMILES): CCCCCNc1nc(N)c2nc(O)n(Cc3ccc(CNCC(C)(C)O)cc3)c2n1 [Compound 184, 6-amino-9-(4-(((2-hydroxy-2-methylpropyl)amino)methyl)benzyl)-2-(pentyl-amino)-9H-purin-8-ol]
EC50 (mTLR7): 20.4 nM
EC50 (hTLR7): 278 nM
EC50 (Mouse splenocytes): 144 nM
EC50 [1, 2]: 0.1 to 1 nM
EC50 [1, 3]: 29.2 nM

Structure (SMILES): CCCCCNc1nc(N)c2nc(O)n(Cc3ccc(CN(CC)CC)cc3)c2n1 [Compound 185, 6-amino-9-(4-((diethylamino)methyl)benzyl)-2-(pentylamino)-9H-purin-8-ol]
EC50 (mTLR7): 1 nM
EC50 (hTLR7): 10 nM
EC50 (Mouse splenocytes): 20.4 nM
EC50 [1, 2]: 1 to 10 nM
EC50 [1, 3]: 12.6 nM

Structure (SMILES): CCCCCNc1nc(N)c2nc(O)n(Cc3ccc(CNC4CC(F)(F)C4)cc3)c2n1 [Compound 186, 6-amino-9-(4-(((3,3-difluorocyclobutyl)amino)methyl)benzyl)-2-(pentyl-amino)-9H-purin-8-ol]
EC50 (mTLR7): 11.1 nM
EC50 (hTLR7): 452 nM
Splenocyte IL6 EC50 (nM) (Mouse splenocytes): inactive
PBMC IL6 EC50 (nM) ([1]; hIL6 in supernatant): inactive
EC50 [1, 2]: > 10 nM

Structure (SMILES): CCCCCNc1nc(N)c2nc(O)n(Cc3ccc(CN4CCNCC4)cc3)c2n1 [Compound 187, 6-amino-2-(pentylamino)-9-(4-(piperazin-1-ylmethyl)benzyl)-9H-purin-8-ol]
EC50 (mTLR7): 9 nM
EC50 (hTLR7): 94 nM
EC50 (Mouse splenocytes): 131 nM
EC50 [1, 2]: 0.1 to 1 nM
EC50 [1, 3]: 9 nM

Structure (SMILES): CCCCCNc1nc(N)c2nc(O)n(Cc3ccc(CN4CCC(N)CC4)cc3)c2n1 [Compound 188, 6-amino-9-(4-((4-aminopiperidin-1-yl)methyl)benzyl)-2-(pentylamino)-9H-purin-8-ol]
EC50 (mTLR7): 26.2 nM
EC50 (hTLR7): 351 nM
EC50 (Mouse splenocytes): 198 nM
EC50 [1, 2]: 1 to 10 nM
EC50 [1, 3]: 19.6 nM

Structure (SMILES): CCCCCNc1nc(N)c2nc(O)n(Cc3ccc(CNCCN)cc3)c2n1 [Compound 189, 6-amino-9-(4-(((2-aminoethyl)amino)methyl)benzyl)-2-(pentylamino)-9H-purin-8-ol]
EC50 (mTLR7): 41 nM
EC50 (hTLR7): 698 nM
EC50 (Mouse splenocytes): 80.6 nM
EC50 [1, 2]: 1 to 10 nM
EC50 [1, 3]: 151 nM

Structure (SMILES): CCCCCNc1nc(N)c2nc(O)n(Cc3ccc(CNCCCCN)cc3)c2n1 [Compound 190, 6-amino-9-(4-(((4-aminobutyl)amino)methyl)benzyl)-2-(pentylamino)-9H-purin-8-ol]
EC50 (mTLR7): 80.8 nM
EC50 (hTLR7): 1420 nM
EC50 (Mouse splenocytes): 106 nM
EC50 [1, 2]: 1 to 10 nM
EC50 [1, 3]: 131 nM

More lines, main results first:

EC50 (mTLR7): 0.5 nM
EC50 (hTLR7): 29 nM
EC50 (Mouse splenocytes): 45.9 nM
Structure (SMILES): CCCCCNc1nc(N)c2nc(O)n(Cc3ccc(CNCc4ccc(CN)cc4)cc3)c2n1 [Compound 191, 6-amino-9-(4-(((4-(aminomethyl)benzyl)amino)methyl)benzyl)-2-(pentyl-amino)-9H-purin-8-ol]
EC50 [1, 2]: < 0.1 nM

EC50 (mTLR7): 681 nM
EC50 (hTLR7): 51.4 nM
Splenocyte IL6 EC50 (nM) (Mouse splenocytes): inactive
Structure (SMILES): CCOc1nc(N)c2nc(O)n(Cc3ccc(CN4CCNCC4)nc3)c2n1 [Compound 192, 6-amino-2-ethoxy-9-((6-(piperazin-1-ylmethyl)pyridin-3-yl)methyl)-9H-purin-8-ol]
EC50 [1, 2]: > 10 nM
EC50 [1, 3]: 202 nM

EC50 (mTLR7): 5.9 nM
EC50 (hTLR7): 60 nM
EC50 (Mouse splenocytes): 48.2 nM
Structure (SMILES): CCOc1nc(N)c2nc(O)n(Cc3ccc(CNCc4cccnc4)cc3OC)c2n1 [Compound 193]
EC50 [1, 2]: 0.1 to 1 nM
EC50 [1, 3]: 109 nM

EC50 (mTLR7): 35.9 nM
EC50 (hTLR7): 311 nM
EC50 (Mouse splenocytes): 1390 nM
Structure (SMILES): CCCCCNc1nc(N)c2nc(O)n(Cc3ccc(CNC4CCNCC4)cc3)c2n1 [Compound 194, 6-amino-2-(pentylamino)-9-(4-((piperidin-4-ylamino)methyl)benzyl)-9H-purin-8-ol]
EC50 [1, 2]: 1 to 10 nM
EC50 [1, 3]: 1100 nM

EC50 (mTLR7): 127 nM
EC50 (hTLR7): 1750 nM
EC50 (Mouse splenocytes): 1000 nM
Structure (SMILES): CCCCCNc1nc(N)c2nc(O)n(Cc3ccc(CNCCN4CCNCC4)cc3)c2n1 [Compound 195, 6-amino-2-(pentylamino)-9-(4-(((2-(piperazin-1-yl)ethyl)amino)methyl)-benzyl)-9H-purin-8-ol]
EC50 [1, 3]: 791 nM
